The target of series [1] is T1, Sterol O-acyltransferase 1 (Homo sapiens) (UniProt P35610).
T1 sequence (whole entry): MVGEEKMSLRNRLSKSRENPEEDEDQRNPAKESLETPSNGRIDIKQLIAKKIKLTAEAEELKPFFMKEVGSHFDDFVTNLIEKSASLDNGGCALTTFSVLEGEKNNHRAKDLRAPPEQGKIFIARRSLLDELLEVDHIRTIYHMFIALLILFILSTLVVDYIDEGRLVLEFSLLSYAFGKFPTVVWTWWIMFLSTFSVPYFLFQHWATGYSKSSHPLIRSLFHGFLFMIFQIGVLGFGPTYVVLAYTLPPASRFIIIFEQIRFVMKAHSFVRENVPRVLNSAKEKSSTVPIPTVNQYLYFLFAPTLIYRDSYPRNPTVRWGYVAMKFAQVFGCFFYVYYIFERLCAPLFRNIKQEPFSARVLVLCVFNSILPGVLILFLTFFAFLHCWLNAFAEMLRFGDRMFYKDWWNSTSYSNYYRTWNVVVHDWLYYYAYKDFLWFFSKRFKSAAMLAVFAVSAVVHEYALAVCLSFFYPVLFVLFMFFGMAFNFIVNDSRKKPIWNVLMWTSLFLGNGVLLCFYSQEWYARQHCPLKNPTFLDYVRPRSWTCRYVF
In words: Inhibition of human ACAT1 expressed in CHO cells assessed as inhibition of [3H]cholesterol ester accumulation at 5 uM in presence of 0.1 mM [3H]oleate-conjugated BSA. The class given is cell-based.

A short description of series [2]: Cytotoxicity against human MDM cells at 5 uM after 24 hrs. The class given is cell-based.
Series [3] concerns the target T1, Sterol O-acyltransferase 1 (Homo sapiens). Briefly: Inhibition of human ACAT1 expressed in CHO cells at 5 uM using [14C]oleoyl-CoA as substrate. The class given is cell-based.
Series [4] has as its target T2, Sterol O-acyltransferase 2 (Homo sapiens) (UniProt O75908).
T2 sequence (whole entry): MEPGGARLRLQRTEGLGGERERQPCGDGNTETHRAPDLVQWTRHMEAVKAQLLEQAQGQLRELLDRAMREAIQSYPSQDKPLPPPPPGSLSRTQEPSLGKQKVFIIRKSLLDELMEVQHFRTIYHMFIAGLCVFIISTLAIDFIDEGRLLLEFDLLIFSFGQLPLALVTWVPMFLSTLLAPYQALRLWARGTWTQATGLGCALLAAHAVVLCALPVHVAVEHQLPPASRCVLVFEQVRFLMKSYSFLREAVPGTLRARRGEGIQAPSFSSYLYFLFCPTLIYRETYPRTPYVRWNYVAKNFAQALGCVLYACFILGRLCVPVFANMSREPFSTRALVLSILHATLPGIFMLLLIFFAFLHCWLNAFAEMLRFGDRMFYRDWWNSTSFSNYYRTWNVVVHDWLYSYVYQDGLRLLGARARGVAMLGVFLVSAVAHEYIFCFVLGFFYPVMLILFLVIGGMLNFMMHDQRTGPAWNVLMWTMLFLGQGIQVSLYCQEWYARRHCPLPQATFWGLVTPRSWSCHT
In words: Inhibition of human ACAT2 expressed in CHO cells assessed as inhibition of [3H]cholesterol ester accumulation at 5 uM in presence of 0.1 mM [3H]oleate-conjugated BSA. The class given is cell-based.

Series [5] has as its system MDM. Briefly: Inhibition of ACAT in human MDM cells assessed as inhibition of foam cell formation by measuring acetylated LDL-induced [3H]cholesterol ester accumulation at 5 uM after 24 hrs in presence of 0.1 mM [3H]oleate. The class given is cell-based.
The target of series [6] is T2, Sterol O-acyltransferase 2 (Homo sapiens). In words: Inhibition of human ACAT2 expressed in CHO cells at 5 uM using [14C]oleoyl-CoA as substrate. It is filed as cell-based.
In series [7] the test system is MDM. Briefly: Effect on ACAT2 expression in human MDM cells at 5 uM for 24 hrs by western blot analysis. It is filed as functional, cell-based. (In general: In western blotting, separated proteins are transferred to a membrane and probed.)
For series [8], the system named is MDM. In words: Effect on SR-A expression in human MDM cells at 5 uM for 24 hrs by western blot analysis. It is filed as functional, cell-based.
Series [9] relates to MDM. Briefly: Effect on triacylglycerol accumulation in human MDM cells at 5 uM after 24 hrs in presence of 50 ug/ml acetylated LDL and 0.1 mM [3H]oleate. The class given is functional, cell-based.
For the next series, the system named is CHO. In words: Cytotoxicity against CHO cells at 5 uM. It is filed as cell-based, Cricetulus griseus. Particulars: chinese hamster.
Series [10] deals with MDM. Briefly: Effect on SR-BI expression in human MDM cells at 5 uM for 24 hrs by western blot analysis. It is filed as functional, cell-based.
Series [11] relates to MDM. Briefly: Inhibition of human ACAT in MDM cells microsomal fraction assessed as inhibition of cholesteryl [14C]oleate formation at 5 uM for 15 mins in presence of [14C]oleoyl-CoA. The class given is cell-based.
The subject of series [12] is MDM. In words: Effect on CD36 expression in human MDM cells at 5 uM for 24 hrs by western blot analysis. It is filed as functional, cell-based.
For series [13], the system named is MDM. Briefly: Effect on phospholipid accumulation in human MDM cells at 5 uM after 24 hrs in presence of 50 ug/ml acetylated LDL and 0.1 mM [3H]oleate. The class given is functional, cell-based.
The subject of series [14] is MDM. In words: Effect on ACAT1 expression in human MDM cells at 5 uM for 24 hrs by western blot analysis. The class given is functional, cell-based.

Eight compounds from ChEMBL document CHEMBL3632472, “Bastadins, brominated-tyrosine derivatives, suppress accumulation of cholesterol ester in macrophages” (Bioorg Med Chem Lett, 2015) can be followed below.

Calls of active or inactive are those of the source. The calls are words filed in the database; no cut-off is given here.

One may read the inhibition as the percentage by which the read-out fell short of the control. As to `O=C1NCCc2ccc(O)c(c2)Oc2ccc(cc2Br)CCNC(=O)/C(=N/O)Cc2cc(Br)c(O)c(c2)Oc2c(Br)cc(cc2Br)C/C1=N\O`, the inhibition result in [1], in series [3], in series [4] and in [6] was “inactive” in each case. For the same compound, in series [2], the Activity entry was “Non-toxic”. In addition, the inhibition in the series with MDM [5] was found to be 80%.
As for `O=C1N/C=C/c2ccc(c(Br)c2)Oc2cc(cc(Br)c2O)CCNC(=O)/C(=N/O)Cc2cc(Br)c(c(Br)c2)Oc2cc(cc(Br)c2O)C/C1=N\O` [BASTADIN 4], the inhibition result in series [1] and in series [4] was “inactive” in each case. In series [2], the Activity entry is recorded as “Non-toxic”. In the series with MDM [5], the inhibition was found to be 36%.
In the case of `O=C1NCCc2cc(Br)c(O)c(c2)Oc2ccc(cc2Br)CCNC(=O)/C(=N\O)Cc2cc(Br)c(O)c(c2)Oc2c(Br)cc(cc2Br)C/C1=N/O` [BASTADIN 5], the inhibition entry in series [1] and in series [4] was “inactive” in each case. In addition, the Activity entry in series [2] is recorded as “Non-toxic”. Also, the inhibition in the series with MDM [5] is 58%.
For the compound `O=C1NCCc2cc(Br)c(O)c(c2)Oc2c(Br)cc(cc2Br)CCNC(=O)/C(=N/O)Cc2cc(Br)c(O)c(c2)Oc2c(Br)cc(cc2Br)C/C1=N\O` [BASTADIN 6], the inhibition in series [1] came out at 86%; in [3], 82%; in series [4] it was 87%; in the series on MDM [5], 96%; in [6], 89%. The Activity entry (in series [2]; in the series on CHO) was “Non-toxic” each time. Besides, the result with MDM [7], in the series with MDM [8], in the series with MDM [9], in the series on MDM [10], with MDM [12] and with MDM [13] was inactive. In addition, the outcome in the series with MDM [14] was inactive. The inhibition entry with MDM [11] is “Active”.
Consider `O=C1N/C=C/c2ccc(c(Br)c2)Oc2cc(cc(Br)c2O)CCNC(=O)/C(=N/O)Cc2ccc(c(Br)c2)Oc2cc(cc(Br)c2O)C/C1=N\O` [BASTADIN 7], for which the inhibition result in series [1] and in series [4] was “inactive” each time. Also, in [2], the Activity entry is reported as “Non-toxic”. The inhibition in the series on MDM [5] was 39%.
Take `O=C1NCCc2cc(Br)c(O)c(c2)Oc2c(Br)cc(cc2Br)[C@H](O)CNC(=O)/C(=N/O)Cc2cc(Br)c(O)c(c2)Oc2ccc(cc2Br)C/C1=N\O` [BASTADIN 12]: the inhibition entry in series [1], in series [3], in series [4] and in [6] was “inactive” throughout. Further, the Activity entry in series [2] is recorded as “Non-toxic”. Besides, the inhibition in the series with MDM [5] was determined as 80%.
As to `O=C1NCCc2ccc(O)c(c2)Oc2c(Br)cc(cc2Br)CCNC(=O)/C(=N/O)Cc2cc(Br)c(O)c(c2)Oc2c(Br)cc(cc2Br)C/C1=N\O` [BASTADIN 16], the inhibition turned out to be 57% in series [1]; 61% in series [3]; 61% in series [4]; 88% in the series with MDM [5]; 58% in [6]. Further, the Activity result (in series [2]; with CHO) was “Non-toxic” in each case. For the same compound, the result in the series with MDM [9] and with MDM [13] was inactive.
For `O=C(NCCc1ccc(O)c(Br)c1)/C(Cc1ccc(O)c(Br)c1)=N\O` [HEMIBASTADIN 1], the inhibition result in series [1] and in [4] was “inactive” throughout. Besides, the Activity result in series [2] is “Non-toxic”. In the series with MDM [5], the inhibition came out at 5%.
